Laboratory results: ChEMBL document CHEMBL3046451, “Design, synthesis, characterization, and in vitro antimicrobial action of novel trisubstituted s-triazines” (2012)
Converted amounts (≈) assume the structure as drawn.

Columns and labels:
Proteus vulgaris [1] = test: Antibacterial activity against Proteus vulgaris MTCC 1771 after 24 hr by agar streak dilution method; type: functional; settings: MTCC 1771, 24 h
Aspergillus niger [2] = test: Antifungal activity against Aspergillus niger MTCC 282 after 24 hr by paper disk diffusion method; type: functional
Candida albicans [3] = test: Antifungal activity against Candida albicans MTCC 183 after 48 hr by agar streak dilution method; type: functional; settings: MTCC 183, 48 h
Klebsiella pneumoniae [4] = test: Antibacterial activity against Klebsiella pneumoniae MTCC 109 after 24 hr by paper disk diffusion method; type: functional
Shigella flexneri [5] = test: Antibacterial activity against Shigella flexneri MTCC 1457 after 24 hr by paper disk diffusion method; type: functional
Pseudomonas aeruginosa [6] = test: Antibacterial activity against Pseudomonas aeruginosa MTCC 741 after 24 hr by paper disk diffusion method; type: functional
Shigella flexneri [7] = test: Antibacterial activity against Shigella flexneri MTCC 1457 after 24 hr by agar streak dilution method; type: functional; settings: MTCC 1457, 24 h
Candida albicans [8] = test: Antifungal activity against Candida albicans MTCC 183 after 24 hr by paper disk diffusion method; type: functional
Salmonella typhi [9] = test: Antibacterial activity against Salmonella enterica subsp. enterica serovar Typhi MTCC 733 after 24 hr by agar streak dilution method; type: functional; settings: MTCC 733, 24 h
Staphylococcus aureus [10] = test: Antibacterial activity against Staphylococcus aureus MTCC 96 after 24 hr by agar streak dilution method; type: functional; settings: MTCC 96, 24 h
Staphylococcus aureus [11] = test: Antibacterial activity against Staphylococcus aureus MTCC 96 after 24 hr by paper disk diffusion method; type: functional
Pseudomonas aeruginosa [12] = test: Antibacterial activity against Pseudomonas aeruginosa MTCC 741 after 24 hr by agar streak dilution method; type: functional; settings: MTCC 741, 24 h
Bacillus cereus [13] = test: Antibacterial activity against Bacillus cereus MTCC 619 after 24 hr by paper disk diffusion method; type: functional
Aspergillus niger [14] = test: Antifungal activity against Aspergillus niger MTCC 282 after 48 hr by agar streak dilution method; type: functional; settings: MTCC 282, 48 h
Klebsiella pneumoniae [15] = test: Antibacterial activity against Klebsiella pneumoniae MTCC 109 after 24 hr by agar streak dilution method; type: functional; settings: MTCC 109, 24 h
Escherichia coli [16] = test: Antibacterial activity against Escherichia coli MTCC 739 after 24 hr by paper disk diffusion method; type: functional
Salmonella typhi [17] = test: Antibacterial activity against Salmonella enterica subsp. enterica serovar Typhi MTCC 733 after 24 hr by paper disk diffusion method; type: functional
Bacillus cereus [18] = test: Antibacterial activity against Bacillus cereus MTCC 619 after 24 hr by agar streak dilution method; type: functional; settings: MTCC 619, 24 h
Proteus vulgaris [19] = test: Antibacterial activity against Proteus vulgaris MTCC 1771 after 24 hr by paper disk diffusion method; type: functional
Escherichia coli [20] = test: Antibacterial activity against Escherichia coli MTCC 739 after 24 hr by agar streak dilution method; type: functional; settings: MTCC 739, 24 h
Klebsiella pneumoniae [21] = test: microbe, parasite or virus in culture; settings: MTCC 109, 24 h, read-out: IZ
Description: Antibacterial activity against Klebsiella pneumoniae MTCC 109 at 50 ug/disk after 24 hr by paper disk diffusion method

Staphylococcus aureus [22] = test: Antibacterial activity against Staphylococcus aureus MTCC 96 at 50 ug/disc after 24 hr by paper disk diffusion method; settings: MTCC 96, 24 h, read-out: IZ
Shigella flexneri [23] = test: Antibacterial activity against Shigella flexneri MTCC 1457 at 50 ug/disc after 24 hr by paper disk diffusion method; type: functional; settings: MTCC 1457, 24 h, read-out: IZ
Salmonella typhi [24] = test: Antibacterial activity against Salmonella enterica subsp. enterica serovar Typhi MTCC 733 at 50 ug/disk after 24 hr by paper disk diffusion method; type: functional; settings: MTCC 733, 24 h, read-out: IZ
Proteus vulgaris [25] = test: Antibacterial activity against Proteus vulgaris MTCC 1771 at 50 ug/disk after 24 hr by paper disk diffusion method; type: functional; settings: MTCC 1771, 24 h, read-out: IZ
Pseudomonas aeruginosa [26] = test: microbe, parasite or virus in culture; settings: MTCC 741, 24 h, read-out: IZ
Description: Antibacterial activity against Pseudomonas aeruginosa MTCC 741 at 50 ug/disk after 24 hr by paper disk diffusion method

Bacillus cereus [27] = test: Antibacterial activity against Bacillus cereus MTCC 619 at 50 ug/disk after 24 hr by paper disk diffusion method; type: functional; settings: MTCC 619, 24 h, read-out: IZ
Escherichia coli [28] = test: microbe, parasite or virus in culture; settings: MTCC 739, 24 h, read-out: IZ
Description: Antibacterial activity against Escherichia coli MTCC 739 at 50 ug/disk after 24 hr by paper disk diffusion method

Aspergillus niger [29] = test: Antifungal activity against Aspergillus niger MTCC 282 at 50 ug/disk after 24 hr by paper disk diffusion method; type: functional; settings: MTCC 282, 24 h, read-out: IZ
Candida albicans [30] = test: Antifungal activity against Candida albicans MTCC 183 at 50 ug/disk after 24 hr by paper disk diffusion method; type: functional; settings: MTCC 183, 24 h, read-out: IZ

SMILES | MIC (Proteus vulgaris [1]) | inhibition zone (IZ) (Aspergillus niger [2]) | MIC (Candida albicans [3]) | inhibition zone (IZ) (Klebsiella pneumoniae [4]) | inhibition zone (IZ) (Shigella flexneri [5]) | inhibition zone (IZ) (Pseudomonas aeruginosa [6]) | MIC (Shigella flexneri [7]) | inhibition zone (IZ) (Candida albicans [8]) | MIC (Salmonella typhi [9]) | MIC (Staphylococcus aureus [10]) | inhibition zone (IZ) (Staphylococcus aureus [11]) | MIC (Pseudomonas aeruginosa [12]) | inhibition zone (IZ) (Bacillus cereus [13]) | MIC (Aspergillus niger [14]) | MIC (Klebsiella pneumoniae [15]) | inhibition zone (IZ) (Escherichia coli [16]) | inhibition zone (IZ) (Salmonella typhi [17]) | MIC (Bacillus cereus [18]) | inhibition zone (IZ) (Proteus vulgaris [19]) | MIC (Escherichia coli [20]) | other results
Cn1c(=O)cc(Oc2nc(Nc3ccc(C#N)cc3)nc(NC3CC3)n2)c2ccccc21 | 50 µg/mL (≈ 118 µM) | 10 mm | 50 µg/mL (≈ 118 µM) | 11 mm | <5 mm | 6 mm | 50 µg/mL (≈ 118 µM) | 8 mm | 50 µg/mL (≈ 118 µM) | 50 µg/mL (≈ 118 µM) | <5 mm | 50 µg/mL (≈ 118 µM) | 11 mm | 50 µg/mL (≈ 118 µM) | 25 µg/mL (≈ 58.8 µM) | 7 mm | <5 mm | 25 µg/mL (≈ 58.8 µM) | 8 mm | 50 µg/mL (≈ 118 µM) | –
Cn1c(=O)cc(Oc2nc(Nc3ccc(C#N)cc3)nc(NC3CCCCC3)n2)c2ccccc21 | 50 µg/mL (≈ 107 µM) | 9 mm | 50 µg/mL (≈ 107 µM) | 13 mm | 9 mm | <5 mm | 50 µg/mL (≈ 107 µM) | 10 mm | 50 µg/mL (≈ 107 µM) | 6.25 µg/mL (≈ 13.4 µM) | 14 mm | 50 µg/mL (≈ 107 µM) | 10 mm | 50 µg/mL (≈ 107 µM) | 12.5 µg/mL (≈ 26.7 µM) | 8 mm | <5 mm | 50 µg/mL (≈ 107 µM) | 7 mm | 50 µg/mL (≈ 107 µM) | –
Cn1c(=O)cc(Oc2nc(NCc3ccccc3)nc(Nc3ccc(C#N)cc3)n2)c2ccccc21 | 50 µg/mL (≈ 105 µM) | <5 mm | > 50 µg/mL | 15 mm | 6 mm | 7 mm | 50 µg/mL (≈ 105 µM) | <5 mm | 50 µg/mL (≈ 105 µM) | 12.5 µg/mL (≈ 26.3 µM) | 13 mm | 50 µg/mL (≈ 105 µM) | 10 mm | > 50 µg/mL | 12.5 µg/mL (≈ 26.3 µM) | 9 mm | <5 mm | 50 µg/mL (≈ 105 µM) | <5 mm | 50 µg/mL (≈ 105 µM) | –
Cn1c(=O)cc(Oc2nc(NCCc3cccs3)nc(Nc3ccc(C#N)cc3)n2)c2ccccc21 | 50 µg/mL (≈ 101 µM) | 13 mm | 25 µg/mL (≈ 50.4 µM) | 10 mm | 14 mm | 10 mm | 25 µg/mL (≈ 50.4 µM) | 15 mm | 50 µg/mL (≈ 101 µM) | 6.25 µg/mL (≈ 12.6 µM) | 15 mm | 50 µg/mL (≈ 101 µM) | 13 mm | 25 µg/mL (≈ 50.4 µM) | 50 µg/mL (≈ 101 µM) | 10 mm | 12 mm | 25 µg/mL (≈ 50.4 µM) | 7 mm | 50 µg/mL (≈ 101 µM) | –
COc1ccc2[nH]cc(CCNc3nc(Nc4ccc(C#N)cc4)nc(Oc4cc(=O)n(C)c5ccccc45)n3)c2c1 | 50 µg/mL (≈ 89.5 µM) | 12 mm | 25 µg/mL (≈ 44.8 µM) | 10 mm | 12 mm | 9 mm | 50 µg/mL (≈ 89.5 µM) | 15 mm | 50 µg/mL (≈ 89.5 µM) | 6.25 µg/mL (≈ 11.2 µM) | 15 mm | 50 µg/mL (≈ 89.5 µM) | 13 mm | 25 µg/mL (≈ 44.8 µM) | 50 µg/mL (≈ 89.5 µM) | 9 mm | <5 mm | 25 µg/mL (≈ 44.8 µM) | 6 mm | 50 µg/mL (≈ 89.5 µM) | –
O=C(O)c1cn(C2CC2)c2cc(N3CCNCC3)c(F)cc2c1=O [CIPROFLOXACIN] | 1 µg/mL (≈ 3.02 µM) | – | – | – | – | – | ≤ 3 µg/mL | – | 1 µg/mL (≈ 3.02 µM) | 1 µg/mL (≈ 3.02 µM) | – | 1 µg/mL (≈ 3.02 µM) | – | – | 1 µg/mL (≈ 3.02 µM) | – | – | 1 µg/mL (≈ 3.02 µM) | – | – | zone of inhibition at 50 µg/disc (Klebsiella pneumoniae [21]): 16 mm; zone of inhibition at 50 µg/disc (Staphylococcus aureus [22]): 17 mm; zone of inhibition at 50 µg/disc (Shigella flexneri [23]): 17 mm; zone of inhibition at 50 µg/disc (Salmonella typhi [24]): 16 mm; zone of inhibition at 50 µg/disc (Proteus vulgaris [25]): 17 mm; zone of inhibition at 50 µg/disc (Pseudomonas aeruginosa [26]): 15 mm; zone of inhibition at 50 µg/disc (Bacillus cereus [27]): 16 mm; zone of inhibition at 50 µg/disc (Escherichia coli [28]): 18 mm
CC(=O)N1CCN(c2ccc(OCC3COC(Cn4ccnc4)(c4ccc(Cl)cc4Cl)O3)cc2)CC1 (centres undefined) [KETOCONAZOLE] | – | – | 1 µg/mL (≈ 1.88 µM) | – | – | – | – | – | – | – | – | – | – | ≤ 3 µg/mL | – | – | – | – | – | – | zone of inhibition at 50 µg/disc (Aspergillus niger [29]): 16 mm; zone of inhibition at 50 µg/disc (Candida albicans [30]): 17 mm
